Data on 20 compounds can be found in patent publication US10799507B2, “5-(7H-pyrrolo[2,3-d]pyrimidin-4-yl)-5-azaspiro[2.5]octane-8-carboxylic acid derivatives as novel JAK kinase inhibitors” (LEO Pharma A/S, priority 2017, dated 2020).

Assay type in all cases: biochemical
Test [1] concerns the target JAK2 (Homo sapiens (Human), UniProt O60674). Put plainly: JAK kinase assay (HTRF), JAK2. Particulars: catalytic domain, ATP at Km (4 μM). The method, then:
(§1) Human baculovirus-expressed JAK1, 2, 3 and TYK2 were purchased from Carna Biosciences, Inc. All four purified enzymes contain only the catalytic domain. JAK1 (aa 850-1154) and TYK2 (aa 871-1187) are expressed with an N-terminally fused GST-tag, and JAK2 and JAK3 with an N-terminally fused His-tag.
(§2) Inhibition of phosphorylation of a synthetic peptide was measured in an HTRF-based assay using the TK substrate-Biotin from the Cisbio HTRFKinEASE TK kit. First, 2 μl of TK solution (TK substrate-biotin in kinase buffer [1× enzymatic buffer from HTRFKinEASE TK kit, 1 mM DTT]) is added to a plate containing 1 μl prediluted compound (final assay concentration DMSO: 0.75%). Then, 5 μl kinase-ATP mix (prepared in kinase buffer) is added to the wells and the plates are incubated at RT for 20-30 min. For all four kinases a concentration of ATP that corresponded to the Km for ATP was used. The final concentrations of buffers, substrate, kinase and ATP were: JAK1: 50 mM Hepes buffer pH 7.0, 0.01% BSA, 10 mM MgCl2, 1 mM DTT, 7 μM ATP, 50 nM SEB, 1 μM TK Substrate-Biotin and 5 ng JAK1; JAK2: 50 mM Hepes buffer pH 7.0, 0.01% BSA, 5 mM MgCl2, 1 mM DTT, 4 μM ATP, 1 μM TK Substrate-Biotin and 0.1 ng JAK2; JAK3: 50 mM Hepes buffer pH 7.0, 0.01% BSA, 5 mM MgCl2, 1 mM DTT, 2 μM ATP, 1 μM TK Substrate-Biotin and 0.3 ng JAK3; TYK2: 50 mM Hepes buffer pH 7.0, 0.01% BSA, 5 mM MgCl2, 1 mM DTT, 13 μM ATP, 50 nM SEB, 1 μM TK Substrate-Biotin and 0.8 ng TYK2. Thereafter, the kinase reaction is stopped by adding 4 μl detection mix (final concentrations: 50 mM Hepes buffer pH 7.0, 0.01% BSA, 0.8 M KF, 20 mM EDTA, 42 nM Streptavidin-XL665 and 1:400 STK Ab Cryptate) and the plates are incubated overnight in the dark. The HTRF signal is read using an Envision plate reader.
Background: TR-FRET usually uses a lanthanide donor and a delayed reading to cut background.

In test [2] the target is JAK3 (Homo sapiens (Human), UniProt P52333). In words: JAK kinase assay (HTRF), JAK3. Particulars: catalytic domain, ATP at Km (2 μM). The method, then:
as §1, §2
(§3) In Table 1 selected JAK kinase inhibitory activities are listed along with analytical tR and observed M+H^+ data (UPLC-MS method 7).

For test [3], the target named is TYK2 (Homo sapiens (Human), UniProt P29597). In words: JAK kinase assay (HTRF), TYK2. Particulars: catalytic domain, ATP at Km (13 μM). The method, then:
as §1, §2, §3

In test [4] the target is JAK1 (Homo sapiens (Human), UniProt P23458). Put plainly: JAK kinase assay (HTRF), JAK1. Particulars: catalytic domain, ATP at Km (7 μM). The method, then: as §1, §2
Chain of JAK1 (P23458 850-1154): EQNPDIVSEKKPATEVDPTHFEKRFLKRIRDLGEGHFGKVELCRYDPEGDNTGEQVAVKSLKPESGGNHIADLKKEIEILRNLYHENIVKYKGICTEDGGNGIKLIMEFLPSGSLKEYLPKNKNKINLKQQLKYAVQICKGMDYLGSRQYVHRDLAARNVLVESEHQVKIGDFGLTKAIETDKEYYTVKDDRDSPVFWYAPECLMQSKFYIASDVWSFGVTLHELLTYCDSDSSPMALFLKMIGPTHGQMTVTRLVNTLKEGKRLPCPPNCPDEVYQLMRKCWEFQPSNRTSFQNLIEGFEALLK

pEC50: −log10 of the molar value.

One may read the pEC50 as the negative decadic logarithm of the EC50, by convention in mol/L. Higher therefore signals a small EC50.

Chain of JAK3 (P52333 822-1111): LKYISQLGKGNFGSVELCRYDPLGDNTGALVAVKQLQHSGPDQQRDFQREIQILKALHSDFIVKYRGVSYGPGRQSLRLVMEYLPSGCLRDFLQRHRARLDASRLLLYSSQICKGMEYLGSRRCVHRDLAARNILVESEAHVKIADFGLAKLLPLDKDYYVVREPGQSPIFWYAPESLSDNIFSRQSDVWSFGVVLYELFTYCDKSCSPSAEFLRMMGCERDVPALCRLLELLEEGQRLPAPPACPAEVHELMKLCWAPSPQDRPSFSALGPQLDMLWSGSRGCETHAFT
Chain of TYK2 (P29597 871-1187): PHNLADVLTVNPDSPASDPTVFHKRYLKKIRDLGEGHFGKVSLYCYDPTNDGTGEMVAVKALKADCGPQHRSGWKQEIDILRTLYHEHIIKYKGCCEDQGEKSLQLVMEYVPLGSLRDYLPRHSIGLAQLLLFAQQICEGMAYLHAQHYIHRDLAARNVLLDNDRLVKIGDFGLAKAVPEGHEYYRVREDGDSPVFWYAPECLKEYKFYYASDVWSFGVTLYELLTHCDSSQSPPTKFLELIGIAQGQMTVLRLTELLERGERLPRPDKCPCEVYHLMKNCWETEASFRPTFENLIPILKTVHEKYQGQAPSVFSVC
Chain of JAK2 (O60674 849-1124): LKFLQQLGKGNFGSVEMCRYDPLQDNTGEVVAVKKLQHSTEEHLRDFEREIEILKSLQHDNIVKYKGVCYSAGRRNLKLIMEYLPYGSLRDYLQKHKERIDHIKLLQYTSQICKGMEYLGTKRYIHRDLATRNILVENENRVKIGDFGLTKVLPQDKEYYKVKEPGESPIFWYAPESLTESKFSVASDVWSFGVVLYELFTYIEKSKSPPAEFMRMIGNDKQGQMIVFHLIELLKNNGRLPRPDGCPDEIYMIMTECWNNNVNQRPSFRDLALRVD

`C[C@H](NC(=O)[C@H]1CCN(c2ncnc3[nH]ccc23)CC12CC2)[C@H](O)c1ccc(F)cn1` [Example 107, (8S)-N-[(1S,2S)-2-(5-fluoro-2-pyridyl)-2-hydroxy-1-methyl-ethyl]-5-(7H-pyrrolo[2,3-d]pyrimidin-4-yl)-5-azaspiro[2.5]octane-8-carboxamide]: the pEC50 is 7.84 in test [1], 7.24 in test [2], 6.90 in test [3] and 7.99 in test [4].
On the same counts, the results for `CCc1cc(C#N)ccc1[C@H](CO)NC(=O)[C@H]1CCN(c2ncnc3[nH]ccc23)CC12CC2` [Example 89, (8S)-N-[(1R)-1-(4-cyano-2-ethyl-phenyl)-2-hydroxy-ethyl]-5-(7H-pyrrolo[2,3-d]pyrimidin-4-yl)-5-azaspiro[2.5]octane-8-carboxamide] are 7.51, 7.27, 6.55 and 8.12.
On the same counts, the results for `NS(=O)(=O)c1cccc(CNC(=O)C2CCN(c3ncnc4[nH]ccc34)CC23CC3)c1` (stereo not shown) [Example 55, 5-(7H-pyrrolo[2,3-d]pyrimidin-4-yl)-N-[(3-sulfamoylphenyl)methyl]-5-azaspiro[2.5]octane-8-carboxamide] are 7.73, 7.87, 6.85 and 8.43.
Turning to `C[C@@H](NC(=O)C1CCN(c2ncnc3[nH]ccc23)CC12CC2)c1cccc(F)c1` (stereo partly drawn) [Example 134, N-[(1R)-1-(3-fluorophenyl)ethyl]-5-(7H-pyrrolo[2,3-d]pyrimidin-4-yl)-5-azaspiro[2.5]octane-8-carboxamide], the pEC50 in test [1] was 7.09; in test [2], 6.77; in test [4] it was 7.48.
For the compound `N#Cc1ccc(CNC(=O)[C@@H]2CCN(c3ncnc4[nH]ccc34)CC23CC3)cc1` [Example 145, (8R)-N-[(4-cyanophenyl)methyl]-5-(7H-pyrrolo[2,3-d]pyrimidin-4-yl)-5-azaspiro[2.5]octane-8-carboxamide], the pEC50 in test [1] is 6.60; in test [2], 6.75; in test [3], 5.24; in test [4], 7.19.
On to `C[C@@H](NC(=O)C1CCN(c2ncnc3[nH]ccc23)CC12CC2)c1ccc(F)c(F)c1` (stereo partly drawn) [Example 113, N-[(1R)-1-(3,4-difluorophenyl)ethyl]-5-(7H-pyrrolo[2,3-d]pyrimidin-4-yl)-5-azaspiro[2.5]octane-8-carboxamide], for which the pEC50 in test [1] is 7.71; in test [2], 7.29; in test [4], 7.94.
`C[C@H](NC(=O)[C@H]1CCN(c2ncnc3[nH]ccc23)CC12CC2)[C@@H](O)c1cccc(F)c1` [Example 150, (8S)-N-[(1S,2S)-2-(3-fluorophenyl)-2-hydroxy-1-methyl-ethyl]-5-(7H-pyrrolo[2,3-d]pyrimidin-4-yl)-5-azaspiro[2.5]octane-8-carboxamide]: the pEC50 is 8.51 in test [2], 7.68 in test [3] and 8.57 in test [4].
For `N#Cc1ccc([C@H](O)CNC(=O)[C@@H]2CCN(c3ncnc4[nH]ccc34)CC23CC3)cc1` [Example 142, (8R)-N-[(2S)-2-(4-cyanophenyl)-2-hydroxy-ethyl]-5-(7H-pyrrolo[2,3-d]pyrimidin-4-yl)-5-azaspiro[2.5]octane-8-carboxamide], the figures for the pEC50 in test [1], in test [2] and in test [4] were 6.75, 6.56 and 7.37, respectively.
With `C[C@H](NC(=O)[C@H]1CCN(c2ncnc3[nH]ccc23)CC12CC2)[C@@H](O)c1cccnc1` [Example 151, (8S)-N-[(1S,2S)-2-hydroxy-1-methyl-2-(3-pyridyl)ethyl]-5-(7H-pyrrolo[2,3-d]pyrimidin-4-yl)-5-azaspiro[2.5]octane-8-carboxamide], the pEC50 in test [2] was 7.53; in test [3], 6.74; in test [4], 7.96.
Take `C[C@@H](NC(=O)C1CCN(c2ncnc3[nH]ccc23)CC12CC2)c1cccc(C#N)c1` (stereo partly drawn) [Example 117, N-[(1R)-1-(3-cyanophenyl)ethyl]-5-(7H-pyrrolo[2,3-d]pyrimidin-4-yl)-5-azaspiro[2.5]octane-8-carboxamide]: the figures for the pEC50 in test [1], in test [2] and in test [4] were 7.67, 7.13 and 7.91, respectively.
Take `COc1cc(F)ccc1[C@@H](C)NC(=O)C1CCN(c2ncnc3[nH]ccc23)CC12CC2` (stereo partly drawn) [Example 131, N-[(1R)-1-(4-fluoro-2-methoxy-phenyl)ethyl]-5-(7H-pyrrolo[2,3-d]pyrimidin-4-yl)-5-azaspiro[2.5]octane-8-carboxamide]: the pEC50 in test [1] is 7.52; in test [2] it was 6.61; in test [4] it was 7.61.
Regarding `C[C@@H](NC(=O)C1CCN(c2ncnc3[nH]ccc23)CC12CC2)c1ccc(F)c(C#N)c1` (stereo partly drawn) [Example 123, N-[(1R)-1-(3-cyano-4-fluoro-phenyl)ethyl]-5-(7H-pyrrolo[2,3-d]pyrimidin-4-yl)-5-azaspiro[2.5]octane-8-carboxamide], the pEC50 was 7.67 in test [1], 7.19 in test [2] and 7.79 in test [4].
As for `COc1cccc([C@@H](C)NC(=O)C2CCN(c3ncnc4[nH]ccc34)CC23CC3)c1` (stereo partly drawn) [Example 139, N-[(1R)-1-(3-methoxyphenyl)ethyl]-5-(7H-pyrrolo[2,3-d]pyrimidin-4-yl)-5-azaspiro[2.5]octane-8-carboxamide], the pEC50 in test [1] is 7.21; in test [2], 7.00; in test [4], 7.41.
For `C[C@H](NC(=O)[C@H]1CCN(c2ncnc3[nH]ccc23)CC12CC2)[C@@H](O)c1ccccc1` [Example 152, (8S)-N-[(1S,2S)-2-hydroxy-1-methyl-2-phenyl-ethyl]-5-(7H-pyrrolo[2,3-d]pyrimidin-4-yl)-5-azaspiro[2.5]octane-8-carboxamide], the pEC50 in test [2] is 8.24; in test [3], 7.56; in test [4] it was 8.57.
Regarding `COc1ccc([C@@H](C)NC(=O)C2CCN(c3ncnc4[nH]ccc34)CC23CC3)cc1F` (stereo partly drawn) [Example 124, N-[(1R)-1-(3-fluoro-4-methoxy-phenyl)ethyl]-5-(7H-pyrrolo[2,3-d]pyrimidin-4-yl)-5-azaspiro[2.5]octane-8-carboxamide], the pEC50 in test [1] was 7.22; in test [2], 6.84; in test [4] it was 7.73.
The matching figures for `COc1ccc([C@H](C)NC(=O)C2CCN(c3ncnc4[nH]ccc34)CC23CC3)cc1` (stereo partly drawn) [Example 66, N-[(1S)-1-(4-methoxyphenyl)ethyl]-5-(7H-pyrrolo[2,3-d]pyrimidin-4-yl)-5-azaspiro[2.5]octane-8-carboxamide]: 8.08, 7.39 and 8.32.
Take `CC(NC(=O)C1CCN(c2ncnc3[nH]ccc23)CC12CC2)c1ccc(F)cc1` (stereo not shown) [Example 61, N-[1-(4-fluorophenyl)ethyl]-5-(7H-pyrrolo[2,3-d]pyrimidin-4-yl)-5-azaspiro[2.5]octane-8-carboxamide]: the pEC50 is 8.14 in test [1], 7.66 in test [2] and 8.37 in test [4].
On the same counts, the results for `COc1cc([C@@H](C)NC(=O)C2CCN(c3ncnc4[nH]ccc34)CC23CC3)ccc1F` (stereo partly drawn) [Example 143, N-[(1R)-1-(4-fluoro-3-methoxy-phenyl)ethyl]-5-(7H-pyrrolo[2,3-d]pyrimidin-4-yl)-5-azaspiro[2.5]octane-8-carboxamide] are 7.04, 6.70 and 7.35.
For `COc1cncc([C@@H](C)NC(=O)C2CCN(c3ncnc4[nH]ccc34)CC23CC3)c1` (stereo partly drawn) [Example 144, N-[(1R)-1-(5-methoxy-3-pyridyl)ethyl]-5-(7H-pyrrolo[2,3-d]pyrimidin-4-yl)-5-azaspiro[2.5]octane-8-carboxamide], the results for the pEC50 in test [1], in test [2] and in test [4] were 7.09, 6.80 and 7.31, respectively.
On to `N#Cc1cccc(CNC(=O)C2CCN(c3ncnc4[nH]ccc34)CC23CC3)c1` (stereo not shown) [Example 70, N-[(3-cyanophenyl)methyl]-5-(7H-pyrrolo[2,3-d]pyrimidin-4-yl)-5-azaspiro[2.5]octane-8-carboxamide], for which the pEC50 in test [1] was 8.07; in test [2], 7.49; in test [4] it was 8.26.
